# Source: patent US5827890A, “Succinamide derivatives, processes for their preparation and their use as gelatinase and collagenase inhibitors” (Celltech Therapeutics Ltd., priority 1993, dated 1998)
# Experiments:
# gelatinase A (72 K form) = assay: Pleural cavity assay, oral activity in mice (injected gelatinase A and radiolabelled [14C]-gelatin); format: in vivo; settings: for inhibition (comparative experiment): each compound administered at the same dose (dose not stated)
# Description: The oral activity of the compounds according to the invention may be determined using the pleural cavity assay described below.
# A […] solution of the test compound in an appropriate solvent (e.g. 50% polyethylene glycol (PG) plus a variable proportion of dimethyl sulphoxide (DMSO) (if required) is administered orally. After an interval of up to 24 hrs, 0.4 ml of a mixture of an equal volume (2.2 ml) of the enzyme gelatinase A (72 K form at a concentration of 20 nM) and radiolabelled [^14 C]-gelatin (at an approximate concentration of 10 μM i.e. 500 times molar excess) is injected into the pleural cavity and maintained at […]. After 35 min mice are overdosed with anaesthetic, the contents of the pleural cavity aspirated and the aspirates cleared by centrifugation at 4° C. then diluted to 15% in trichloroacetic acid (TCA) and left overnight at 4° C. The resulting TCA precipitate is then separated by centrifugation and radioactivity in each supernatant measured by scintillation counting. Results are expressed as a % inhibition of enzyme activity calculated by comparing the radioactivity measured for each test compound with a control value obtained by performing the same assay in the absence of a gelatinase inhibitor.
# A comparative experiment was carried out using the same procedure and the compound of Example 1 [A] and the amides [B], [C] and [D] (prepared in a similar fashion to the compound of Example 1): [drawing 19]
# Gelatinase 72KD = target: T1, Gelatinase 72KD (Homo sapiens, UniProt P08253); assay: Enzyme assay to determine Ki values, peptide substrate Dnp-Pro-Leu-Gly-Leu-Trp-Ala-D-Arg-NH2 (gelatinase 72KD); format: biochemical; settings: for Ki: incubated overnight, pH 7.5, true Ki from plot of Ki (app) vs. [S]
# T1 sequence (P08253 110-660): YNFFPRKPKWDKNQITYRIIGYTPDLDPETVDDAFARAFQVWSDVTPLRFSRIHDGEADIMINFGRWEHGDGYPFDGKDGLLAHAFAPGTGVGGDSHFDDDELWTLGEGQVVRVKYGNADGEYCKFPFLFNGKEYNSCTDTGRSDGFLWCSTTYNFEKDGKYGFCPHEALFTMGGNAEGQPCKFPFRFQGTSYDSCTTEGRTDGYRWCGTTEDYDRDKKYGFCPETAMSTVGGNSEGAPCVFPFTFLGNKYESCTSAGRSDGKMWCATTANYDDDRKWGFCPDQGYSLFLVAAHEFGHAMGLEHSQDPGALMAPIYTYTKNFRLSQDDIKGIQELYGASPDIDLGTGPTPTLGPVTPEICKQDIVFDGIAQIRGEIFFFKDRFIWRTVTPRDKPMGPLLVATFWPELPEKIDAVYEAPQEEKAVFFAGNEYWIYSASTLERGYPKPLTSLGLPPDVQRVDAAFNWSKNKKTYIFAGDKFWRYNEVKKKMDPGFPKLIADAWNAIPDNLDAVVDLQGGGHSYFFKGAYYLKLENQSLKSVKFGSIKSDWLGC
# Description: (§1) The activity of the compounds of the invention may be determined as described below.
# (§2) All enzyme assays to determine Ki values were performed using the peptide substrate Dnp-Pro-Leu-Gly-Leu-Trp-Ala-D-Arg-NH2. [M. Sharon Stock and Robert D. Gray. JBC 264, 4277-81, 1989). The enzymes cleave at the Gly-Leu bond which can be followed fluorimetrically by measuring the increase in Trp fluorescence emission associated with the removal of the quenching dinitrophenol (Dnp) group.
# (§3) Brij 35 at either room temperature or 37° C. depending on the enzyme. The reaction is stopped by adjusting the pH to 4 using 0.1M sodium acetate buffer and the fluorescence read at an excitation wavelength of 280 nm and emission wavelength of 346 nm.
# (§4) Ki values can be established using the equation for tight-binding inhibition: [formula] where Vo is the initial rate of reaction in the absence of inhibitor, Vi is the initial rate in the presence of inhibitor, [E] is the total enzyme concentration and [I] the total inhibitor concentration in the reaction mixture.
# (§5) For stromelysin and collagenase, Ki (app) was assumed to approximate to the true Ki as [S]<<Km for the substrate hydrolysis. For gelatinase the Ki was determined by performing the analyses at several substrate concentrations. A plot of Ki (app) vs. [S] then gave the true Ki as the value of the y-axis intercept.
# Collagenase = target: T2, Collagenase (Homo sapiens, UniProt P03956); assay: Enzyme assay to determine Ki values, peptide substrate Dnp-Pro-Leu-Gly-Leu-Trp-Ala-D-Arg-NH2 (collagenase); format: biochemical; settings: for Ki: incubated overnight, pH 7.5, Ki (app) assumed to approximate true Ki
# T2 sequence (P03956 100-469): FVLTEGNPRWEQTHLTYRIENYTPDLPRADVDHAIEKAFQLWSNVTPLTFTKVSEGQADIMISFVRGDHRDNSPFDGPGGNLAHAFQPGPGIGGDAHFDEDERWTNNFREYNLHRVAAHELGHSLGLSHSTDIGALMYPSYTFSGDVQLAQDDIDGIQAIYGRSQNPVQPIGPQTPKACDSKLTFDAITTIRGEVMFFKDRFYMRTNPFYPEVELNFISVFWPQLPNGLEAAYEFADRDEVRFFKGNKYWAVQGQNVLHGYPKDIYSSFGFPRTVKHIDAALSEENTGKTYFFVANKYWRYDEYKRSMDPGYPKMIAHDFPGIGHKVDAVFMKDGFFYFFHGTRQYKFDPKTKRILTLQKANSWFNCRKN
# Description: as §1, §2, §3, §4, §5
# Stromelysin-1 = Stromelysin-1 (Homo sapiens, UniProt P08254); assay: Enzyme assay to determine Ki values, peptide substrate Dnp-Pro-Leu-Gly-Leu-Trp-Ala-D-Arg-NH2 (stromelysin-1); format: biochemical; settings: incubated overnight, pH 7.5; Ki (app) assumed to approximate true Ki
# Description: as §1, §2, §3, §4, §5
# [1] = system: vascularisation of sponge implants; assay: Inhibition of angiogenesis: vascularisation of sponge implants in mice, xenon clearance; format: in vivo; settings: oral, twice per day, 100 mg/kg in PG vehicle, beginning 8 h after sponge implantation
# Description: Compounds were assessed by their ability to inhibit vascularisation of sponge implants in mice. The amount of vascularisation in this model is determined by the rate of clearance of radioactive xenon from the sponge. Compounds in polyethylene glycol (PG) vehicle were orally administered twice per day at a dose of 100 mg/kg, with administration beginning 8 h after sponge implementation.
# FIG. 1 illustrates the result of one experiment using the compound of Example 1. For comparative purposes the following compound (Compound [E]) was used: [drawing 20] (prepared as described in International Patent Application No. PCT/GB 94/00896).
# The results are expressed in FIG. 1 as a graph of xenon clearance (expressed as a clearance constant) against time.
# [2] = relative to the compound of Example 1
# Sequence of Stromelysin-1 (P08254 100-477): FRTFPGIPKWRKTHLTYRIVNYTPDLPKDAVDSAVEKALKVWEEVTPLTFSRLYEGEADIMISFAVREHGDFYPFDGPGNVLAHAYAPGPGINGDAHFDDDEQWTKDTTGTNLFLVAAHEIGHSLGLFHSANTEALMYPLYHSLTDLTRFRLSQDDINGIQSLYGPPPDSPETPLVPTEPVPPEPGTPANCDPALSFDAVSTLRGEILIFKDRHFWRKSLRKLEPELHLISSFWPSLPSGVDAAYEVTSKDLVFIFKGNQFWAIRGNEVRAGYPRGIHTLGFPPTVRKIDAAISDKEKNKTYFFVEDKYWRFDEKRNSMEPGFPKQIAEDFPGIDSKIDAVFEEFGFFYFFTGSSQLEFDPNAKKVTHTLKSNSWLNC
SMILES,inhibition (comparative experiment) (gelatinase A (72 K form)),Ki (Stromelysin-1),Ki (Gelatinase 72KD),% Inhibition of enzyme activity (gelatinase A (72 K form); at 10 mg/Kg),Ki (Collagenase),other results
"CC(C)[C@H](NC(=O)[C@H](CCCc1ccc(Cl)cc1)CC(=O)NO)C(N)=O [Compound [B], reference compound]",53%,,,,,
"CC(C)C[C@H](NC(=O)[C@H](CCCc1ccc(Cl)cc1)CC(=O)NO)C(N)=O [Compound [C], reference compound]",25%,,,,,
"CCNC(=O)[C@@H](NC(=O)[C@H](CCCc1ccc(Cl)cc1)CC(=O)NO)C(C)(C)C [Compound [D], reference compound]",11%,,,,,
"CNC(=O)[C@@H](NC(=O)[C@@H](CC(=O)NO)CC(C)C)C(C)(C)SC [Compound [E], reference compound]",,,,,,fold less potent on gelatinase than the compound of Example 1 (Gelatinase 72KD; [2]): approximately 40 fold; fold more potent on collagenase than the compound of Example 1 (Collagenase; [2]): approximately 40 fold
"CC(C)(C)[C@H](NC(=O)[C@H](CCCc1ccc(Cl)cc1)CC(=O)NO)C(N)=O [Example 1, N^4 Hydroxy-N^1-(1-(S)-carbamoyl-2.2-dimethylpropyl)-2-(R)-4(chlorophenylpropyl)succinamide]",100%,10.9 nM,0.07 nM,100%,122 nM,"inhibition of vascularisation / xenon clearance (FIG. 1) [1]: substantial inhibition of vascularisation as seen by the marked inhibition of xenon clearance, which was much greater than the inhibition achieved by the non-specific metalloproteinase inhibitor Compound [E]"
"CC(C)(C)[C@H](NC(=O)[C@H](CCCc1ccccc1)CC(=O)NO)C(N)=O [Example 2, N^4 -Hydroxy-N^1-(1-(S)-carbamoyl-2.2-dimethylpropyl)-2-(R)-(phenylpropyl)succinamide]",,,,73%,,
"Cc1ccc(CCC[C@H](CC(=O)NO)C(=O)N[C@H](C(N)=O)C(C)(C)C)cc1 [Example 3, N^4 Hydroxy-N^1-(1-(S)-carbamoyl-2.2-dimethylpropyl)-2-(R)-(4-methylphenylpropyl)succinamide]",,10.2 nM,0.042 nM,95%,491 nM,
"COc1ccc(CCC[C@H](CC(=O)NO)C(=O)N[C@H](C(N)=O)C(C)(C)C)cc1 [Example 4, N^4 -Hydroxy-N^1-(1-(S)-carbamoyl-2.2-dimethylpropyl)-2-(R)-(4-methoxyphenylpropyl)succinamide]",,,0.023 nM,82%,,
"CNC(=O)[C@@H](NC(=O)[C@H](CCCc1ccc(Cl)cc1)CC(=O)NO)C(C)(C)C [Example 5, N^4 -Hydroxy-N^1-(1-(S)-methylaminocarbonyl-2.2-dimethylpropyl)-2-(R)-(4-chlorophenylpropyl)succinamide]",,2.64 nM,,64%,22.5 nM,
"CC(C)(C)[C@H](NC(=O)[C@H](CCCc1ccc(F)cc1)CC(=O)NO)C(N)=O [Example 6, N^4 -Hydroxy-N^1-(1-(S)-carbamoyl-2.2-dimethylpropyl)-2-(R)-(4-fluorophenylpropyl)succinamide]",,,0.21 nM,76%,,
"CNC(=O)[C@@H](NC(=O)[C@H](CCCc1ccc(C)cc1)CC(=O)NO)C(C)(C)C [Example 7, N^4 -Hydroxy-N^1-(1-(S)-methylaminocarbonyl-2.2-dimethylpropyl)-2-(R)-(4-methylphenylpropyl)succinamide]",,9.91 nM,0.023 nM,,84.4 nM,% Inhibition of enzyme activity (gelatinase A (72 K form); at 80 mg/Kg): 100%
